This note sets out measurements from ChEMBL document CHEMBL4130530, “Lucky Switcheroo: Dramatic Potency and Selectivity Improvement of Imidazoline Inhibitors of Human Carbonic Anhydrase VII” (ACS Med Chem Lett, 2017).

One may read the Ki as a dissociation constant, usually derived from enzyme kinetics or from competition with a known ligand.

Molecules are shown by their SMILES.

The target in the first test is Carbonic anhydrase 1 (Homo sapiens, UniProt P00915). The test is described as follows: Inhibition of recombinant human carbonic anhydrase 1 incubated for 15 mins prior to testing measured for 10 to 100 secs by phenol red based stopped-flow CO2 hydration assay.
Carbonic anhydrase 1, sequence (P00915 whole entry): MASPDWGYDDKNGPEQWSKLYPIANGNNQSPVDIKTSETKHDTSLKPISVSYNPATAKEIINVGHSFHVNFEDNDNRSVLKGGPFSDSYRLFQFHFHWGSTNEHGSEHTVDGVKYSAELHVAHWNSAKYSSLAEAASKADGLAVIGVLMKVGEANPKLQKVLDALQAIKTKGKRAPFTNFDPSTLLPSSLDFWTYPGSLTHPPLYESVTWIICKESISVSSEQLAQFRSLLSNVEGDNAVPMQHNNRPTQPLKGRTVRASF
Turning to `NS(=O)(=O)c1ccc(N2CCN=C2c2ccc(F)cc2)cc1`, the Ki is 2.34 µM.
With `NS(=O)(=O)c1ccc(N2CCN=C2c2ccc(Cl)cc2)cc1`, the Ki came to 0.96 µM.

For a further test, the target named is Carbonic anhydrase 2 (Homo sapiens, UniProt P00918). The test can be described thus: Inhibition of recombinant human carbonic anhydrase 2 incubated for 15 mins prior to testing measured for 10 to 100 secs by phenol red based stopped-flow CO2 hydration assay.
Turning to `NS(=O)(=O)c1ccc(N2CCN=C2c2ccc(F)cc2)cc1`, the Ki worked out at 0.0761 µM.
On the same count and under the same terms, the value for `NS(=O)(=O)c1ccc(N2CCN=C2c2ccc(Cl)cc2)cc1` was 0.0467 µM; that for `NS(=O)(=O)c1ccc(C2=NCCN2c2ccc(F)cc2)cc1` was 0.742 µM.
As for `CCOc1ccccc1N1CCN=C1c1ccc(S(N)(=O)=O)cc1`, the Ki is 0.866 µM.
Same read-out and setting: the value for `COc1ccc(N2CCN=C2c2ccc(S(N)(=O)=O)cc2)cc1` was 0.0533 µM.
Regarding `NS(=O)(=O)c1ccc(C2=NCCN2c2cncnc2)cc1`, the Ki was 0.703 µM.
As for `NS(=O)(=O)c1ccc(C2=NCCN2c2ccc(Cl)cc2)cc1`, the Ki is 0.182 µM.
The same measure, in the same setting: the value for `COc1ccc(N2CCN=C2c2ccc(S(N)(=O)=O)cc2)cc1OC` was 0.724 µM.
Same read-out and setting: then `Cc1ccccc1N1CCN=C1c1ccc(S(N)(=O)=O)cc1`, with 0.0617 µM; and `NS(=O)(=O)c1ccc(C2=NCCN2c2ccccc2)cc1`, with 0.376 µM.
On the same count and under the same terms, the value for `NS(=O)(=O)c1ccc(C2=NCCN2c2cccnc2)cc1` was 0.848 µM.

In a further test the target is Carbonic anhydrase 4 (Homo sapiens, UniProt P22748). The test can be described thus: Inhibition of recombinant human carbonic anhydrase 4 incubated for 15 mins prior to testing measured for 10 to 100 secs by phenol red based stopped-flow CO2 hydration assay.
Carbonic anhydrase 4, sequence (P22748 whole entry): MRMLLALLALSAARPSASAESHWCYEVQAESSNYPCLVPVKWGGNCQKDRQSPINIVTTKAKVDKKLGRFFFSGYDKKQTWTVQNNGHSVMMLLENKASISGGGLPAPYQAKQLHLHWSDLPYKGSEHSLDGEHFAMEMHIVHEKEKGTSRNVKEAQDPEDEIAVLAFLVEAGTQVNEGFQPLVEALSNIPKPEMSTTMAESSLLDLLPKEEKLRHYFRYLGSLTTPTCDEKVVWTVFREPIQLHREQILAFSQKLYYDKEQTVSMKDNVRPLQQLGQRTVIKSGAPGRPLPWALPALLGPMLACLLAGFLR
As to `NS(=O)(=O)c1ccc(N2CCN=C2c2ccc(F)cc2)cc1`, the inhibitory constant (Ki) was found to be 9.73 µM.
The same measure, in the same setting: the value for `NS(=O)(=O)c1ccc(N2CCN=C2c2ccc(Cl)cc2)cc1` was 8.14 µM.

The next test deals with Carbonic anhydrase 7 (Homo sapiens, UniProt P43166). The test can be described thus: Inhibition of recombinant human carbonic anhydrase 7 incubated for 15 mins prior to testing measured for 10 to 100 secs by phenol red based stopped-flow CO2 hydration assay.
Carbonic anhydrase 7, sequence (P43166 whole entry): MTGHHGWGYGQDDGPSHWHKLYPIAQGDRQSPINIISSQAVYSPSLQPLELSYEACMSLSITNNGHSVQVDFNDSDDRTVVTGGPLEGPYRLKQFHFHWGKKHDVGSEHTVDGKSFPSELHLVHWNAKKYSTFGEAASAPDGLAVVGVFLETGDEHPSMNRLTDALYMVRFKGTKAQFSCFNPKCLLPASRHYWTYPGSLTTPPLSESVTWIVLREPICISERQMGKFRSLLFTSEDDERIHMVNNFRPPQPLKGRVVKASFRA
As for `NS(=O)(=O)c1ccc(N2CCN=C2c2ccc(F)cc2)cc1`, the inhibition constant Ki is 0.303 µM.
With `NS(=O)(=O)c1ccc(N2CCN=C2c2ccc(Cl)cc2)cc1`, the Ki is 0.269 µM.
